Assay results taken from US20250313635A1, “ANTI-INTEGRIN ANTIBODIES AND USES THEREOF” (Merck Sharp & Dohme LLC, priority 2022, published 2025).

How the values were obtained:
mαvβ6 = target: T1, mαvβ6 (Mus musculus, UniProt P43406+Q9Z0T9); assay: Mouse AlphaLISA integrin-ligand blocking assay (LAP); assay type: biochemical; conditions: Table 12; read-out: IC50 Mouse integrin AlphaLISA assays mαvβ6
T1 construct: The full extracellular domains for all α and β integrin subunits; (GGGS)3 linker (C); acidic coiled-coil with cysteine (C); GG-Avitag (C); hexa-histidine tag (C); basic coiled-coil with cysteine (C); made in house; host or cells: Expi293 cells
Method: (§1) Integrin AlphaLISA assay. In the AlphaLISA integrin assays, we used a HEPES based buffer (25 mM HEPES pH 7.4, 137 mM NaCl, 1 mM MgCl2, 1 mM MnCl2, 2 mM CaCl2, 2.7 mM KCl, and 0.05% Tween 20). Optimal assay conditions were determined with a titration of the reagents for signal noise ratio (S/N), linear range, etc. For the respective integrins, we used the final concentrations described in Table 9.
(§2) Briefly, the testing antibody (8 μL) was added as a 4×(of Final testing concentration) solution in the HEPES buffer described previously into a 384w AlphaPlate™ (Perkin Elmer #6005350). Then the integrin and ligand were added sequentially as 8×(4 μL each). Plates were sealed and incubated at room temperature for two hours. Then 4×acceptor bead solution ([…]) was added, and the plates were resealed and incubated at room temperature (RT) for one hour. Finally, 4×([…]) donor beads solution was added in a darkened room and incubated for 45 minutes at room temperature. Plates were read on the Envision (Perkin Elmer) in AlphaScreen™ mode within three hours of donor bead addition.

mαvβ8 = target: T2, mαvβ8 (Mus musculus, UniProt P43406+Q0VBD0); assay: as above; assay type: biochemical; conditions: Table 12; read-out: IC50 Mouse integrin AlphaLISA assays mαvβ8
T2 construct: The full extracellular domains for all α and β integrin subunits; (GGGS)3 linker (C); acidic coiled-coil with cysteine (C); GG-Avitag (C); hexa-histidine tag (C); basic coiled-coil with cysteine (C); made in house; host or cells: Expi293 cells
Method: as §1, §2

[1] = test system: bleomycin-induced lung fibrosis mouse model; assay: Mouse bleomycin lung fibrosis model; assay type: in vivo; conditions: MK-0429 200 mpk osmotic minipump, Nintedanib 60 mpk po qd
Method: Mouse bleomycin lungfibrosis models. Adult male C57BL/6 mice (Taconic, Rensselaer, NY) were housed in a temperature and humidity-controlled facility with a 12-hour light: 12-hour dark cycle. Animals had ad libitum access to food (Purina Rodent Chow 5053, LabDiet, St. Louis, MO) and water. All procedures utilizing experimental animals were conducted in accordance with the Guide for the Care and Use of Laboratory Animals, and experimental procedures were reviewed and approved by the Institutional Animal Care and Use Committee at MRL, Kenilworth, NJ.
For osmotic minipump implantation, trifluoroacetate (TFA) salt of MK-0429 was formulated in 50% dimethylsulfoxide (DMSO)/50% H2O at a concentration of 416 mg/mL. MK-0429 or vehicle solution were filled in minipumps (Alzet, #1007D, flow rate 0.5 μL/hour). Minipumps were placed in mice subcutaneously in a pocket on the back between the shoulder blades. A small incision was made and a subcutaneous pocket formed by blunt dissection. A sterile minipump was inserted into the subcutaneous pocket. The incision was closed with staples or non-absorbable suture or absorbable (subcuticular) suture. The minipumps were used for continuous drug delivery for two weeks.
Mice at 12˜13 weeks of age were randomized to five groups: saline, bleomycin instillation with vehicle (osmotic minipump), bleomycin instillation with MK-0429 treatment, bleomycin instillation with vehicle oral treatment, and bleomycin instillation with Nintedanib treatment. All mice were anaesthetized with isoflurane. Bleomycin was dosed by intratracheal (i.t) instillation in a volume of 50 μL, at a dose of 1 unit/kg body weight. After instillation, mice were kept in a heads-up position for 2-5 minutes before putting into cages. MK-0429 (200 mg/kg) was administered by Osmotic pump from day 5 to day 14 and Nintedanib (60 mg/kg) was administered, p.o., q.d., for 14 days. Vehicle was dosed orally at 10 am daily from the day 5 to the end of the studies and dosing volume was 10 mL/kg. For plasma PK analysis, an aliquot of 50 μL plasma was spiked into a 96-well plate, and 200 μL of acetonitrile containing internal standard were added for protein precipitation. The mixture was vortexed, centrifuged at 4000 rpm for 20 minutes. Then 50 μL of supernatant fraction was mixed with 200 μL H2O and the final solution were injected for LC-MS/MS analysis. The methods for quantitative analysis were developed on UPLC (Waters) chromatographic system equipped with an API4000 QTrap™ mass spectrometer (Applied Biosystems, Concord, Ontario, Canada). Analyst 1.5 software packages (Applied Biosystems) were used to control the LC-MS/MS system and data acquisition and processing.
Histopathology analysis. Upon completion of the study, animals were euthanized and tissues were collected for histological assessment. Lung tissues were perfused with 10% formalin, fixed for 24 hours, and then paraffin embedded. Tissue sections were stained with hematoxylin & eosin (H&E) and Masson's trichrome, subsequently evaluated under light microscope. The severity of histopathologic changes and fibrosis in the lung were graded as described previously by pathologists (Ashcroft et al., J. Clin. Pathol. 41, 467-470 (1988); Hubner et al., Biotechniques 44(507-511), 514-607 (2008)). Following deparaffinization and rehydration, each lung tissue section was processed to identify αSMA deposition by immunohistochemistry. The primary antibodies used were αSMA antibody from Sigma. The Aperio ScanScope™ XT Slide Scanner (Aperio Technologies) system was used to capture whole slide digital images with a 20×objective. Digital images were managed using Aperio Spectrum™. The positive stains were identified and quantified using a macro created from a color deconvolution algorithm (Aperio Technologies). Statistical analysis was performed by using One-way ANOVA followed by Tukey's test.

[2] = osteoporosis patients, 52 weeks; cited from earlier work
[3] = 14 days treatment, vs BLM-vehicle

T1 sequence (P43406 31-988 limits assumed): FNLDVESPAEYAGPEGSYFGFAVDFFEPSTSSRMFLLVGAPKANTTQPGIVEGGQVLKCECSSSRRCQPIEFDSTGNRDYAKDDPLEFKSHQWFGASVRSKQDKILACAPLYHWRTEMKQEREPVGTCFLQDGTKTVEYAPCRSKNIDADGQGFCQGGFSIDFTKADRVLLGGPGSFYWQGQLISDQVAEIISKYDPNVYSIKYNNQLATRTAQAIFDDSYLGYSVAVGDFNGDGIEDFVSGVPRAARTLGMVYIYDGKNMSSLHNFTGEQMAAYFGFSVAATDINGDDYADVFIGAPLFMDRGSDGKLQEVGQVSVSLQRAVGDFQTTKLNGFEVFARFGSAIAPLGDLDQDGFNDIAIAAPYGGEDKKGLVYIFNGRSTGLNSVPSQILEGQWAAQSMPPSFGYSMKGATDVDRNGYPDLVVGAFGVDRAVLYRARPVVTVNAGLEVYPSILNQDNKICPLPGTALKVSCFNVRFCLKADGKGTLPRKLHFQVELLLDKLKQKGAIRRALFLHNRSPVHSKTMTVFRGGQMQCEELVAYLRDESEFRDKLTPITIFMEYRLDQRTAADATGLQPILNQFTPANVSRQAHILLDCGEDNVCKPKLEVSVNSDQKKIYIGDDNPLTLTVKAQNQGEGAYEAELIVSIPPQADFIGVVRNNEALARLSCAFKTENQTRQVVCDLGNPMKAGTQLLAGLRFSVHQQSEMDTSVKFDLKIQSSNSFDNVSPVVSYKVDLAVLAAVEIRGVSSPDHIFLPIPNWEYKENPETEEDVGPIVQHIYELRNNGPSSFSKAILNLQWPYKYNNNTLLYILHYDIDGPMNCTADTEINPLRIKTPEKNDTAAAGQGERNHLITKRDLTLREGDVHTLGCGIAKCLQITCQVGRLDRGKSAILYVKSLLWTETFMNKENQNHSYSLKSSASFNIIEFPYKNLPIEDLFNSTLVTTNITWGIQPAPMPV
T1 sequence (Q9Z0T9 22-708 limits assumed): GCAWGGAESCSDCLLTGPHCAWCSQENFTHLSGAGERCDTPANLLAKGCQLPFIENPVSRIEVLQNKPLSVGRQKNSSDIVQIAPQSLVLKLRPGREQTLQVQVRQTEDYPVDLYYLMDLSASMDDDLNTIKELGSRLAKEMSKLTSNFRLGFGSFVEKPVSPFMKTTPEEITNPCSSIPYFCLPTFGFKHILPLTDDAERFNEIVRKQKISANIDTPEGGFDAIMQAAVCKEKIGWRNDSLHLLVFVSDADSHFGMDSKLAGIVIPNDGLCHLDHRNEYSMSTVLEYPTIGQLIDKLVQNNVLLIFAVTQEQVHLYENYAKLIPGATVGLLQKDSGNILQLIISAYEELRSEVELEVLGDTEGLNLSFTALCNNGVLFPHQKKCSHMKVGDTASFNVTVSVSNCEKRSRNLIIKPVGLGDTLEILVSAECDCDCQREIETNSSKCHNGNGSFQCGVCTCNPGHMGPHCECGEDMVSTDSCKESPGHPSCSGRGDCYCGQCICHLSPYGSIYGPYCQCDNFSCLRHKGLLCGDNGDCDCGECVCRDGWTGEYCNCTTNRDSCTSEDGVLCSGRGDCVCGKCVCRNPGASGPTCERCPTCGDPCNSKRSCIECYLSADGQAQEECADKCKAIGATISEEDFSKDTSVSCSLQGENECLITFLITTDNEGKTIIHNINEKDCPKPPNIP
T2 sequence (P43406 31-988 limits assumed): as the sequence (P43406 31-988 limits assumed) above
T2 sequence (Q0VBD0 22-681 limits assumed): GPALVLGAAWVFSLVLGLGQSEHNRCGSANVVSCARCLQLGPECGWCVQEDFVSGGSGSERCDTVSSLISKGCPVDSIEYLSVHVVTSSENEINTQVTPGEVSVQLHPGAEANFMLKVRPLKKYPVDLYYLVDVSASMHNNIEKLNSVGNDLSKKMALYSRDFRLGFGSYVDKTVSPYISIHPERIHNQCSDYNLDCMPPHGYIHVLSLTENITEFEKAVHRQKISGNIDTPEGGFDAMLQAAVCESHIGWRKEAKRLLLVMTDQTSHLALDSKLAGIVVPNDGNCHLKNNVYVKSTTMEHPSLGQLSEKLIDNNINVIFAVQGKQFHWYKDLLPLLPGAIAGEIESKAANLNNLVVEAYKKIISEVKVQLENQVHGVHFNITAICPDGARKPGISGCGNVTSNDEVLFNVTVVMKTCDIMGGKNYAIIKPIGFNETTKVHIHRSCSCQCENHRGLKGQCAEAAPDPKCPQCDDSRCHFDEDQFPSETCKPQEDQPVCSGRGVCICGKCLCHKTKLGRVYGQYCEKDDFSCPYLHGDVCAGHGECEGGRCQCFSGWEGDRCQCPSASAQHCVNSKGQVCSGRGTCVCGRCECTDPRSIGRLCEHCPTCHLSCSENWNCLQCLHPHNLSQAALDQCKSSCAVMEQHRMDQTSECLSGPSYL

IC50 (mαvβ6): 0.4 nM
IC50 (mαvβ8): 5.3 nM
SMILES: COc1ccc([C@H](CC(=O)O)N2CCN(CCCc3ccc4c(n3)NCCC4)C2=O)cn1 [MK-0429, (3S)-3-(6-methoxypyridin-3-yl)-3-[2-oxo-3-[3-(5,6,7,8-tetrahydro-1,8-naphthyridin-2-yl)propyl]imidazolidin-1-yl]propanoic acid]
body weight difference vs bleomycin group [1]: no significant body weight difference
BALF TIMP-1 content [1, 3]: did not reach statistical significance
bleomycin-induced αSMA expression (IHC) [1, 3]: significantly decreased
inflammation in the lung [1, 3]: nonstatistical significant decrease
modified Ashcroft score [1, 3]: significantly decreased
safety profile [2]: relatively well-tolerated safety profile
